This is an account of results in ChEMBL document CHEMBL4118117, “Synthesis, biological evaluation, and molecular docking investigation of benzhydrol- and indole-based dual PPAR-γ/FFAR1 agonists” (Bioorg Med Chem Lett, 2018).

Assay [1] addresses T1, Peroxisome proliferator-activated receptor gamma (Homo sapiens) (UniProt P37231).
T1 sequence (whole entry): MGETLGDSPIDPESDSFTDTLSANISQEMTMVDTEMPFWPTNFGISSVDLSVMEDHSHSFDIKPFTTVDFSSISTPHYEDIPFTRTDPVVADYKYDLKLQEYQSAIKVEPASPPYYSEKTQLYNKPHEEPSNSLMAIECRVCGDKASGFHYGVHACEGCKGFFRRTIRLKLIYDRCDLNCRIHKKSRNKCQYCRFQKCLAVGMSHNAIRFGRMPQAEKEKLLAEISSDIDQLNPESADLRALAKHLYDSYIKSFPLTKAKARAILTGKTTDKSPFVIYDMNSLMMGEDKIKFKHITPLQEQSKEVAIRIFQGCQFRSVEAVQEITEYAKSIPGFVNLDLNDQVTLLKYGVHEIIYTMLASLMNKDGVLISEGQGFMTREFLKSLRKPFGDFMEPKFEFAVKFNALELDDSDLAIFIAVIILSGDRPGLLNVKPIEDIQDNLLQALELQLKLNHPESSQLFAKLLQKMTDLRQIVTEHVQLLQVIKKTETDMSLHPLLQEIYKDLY
The assay is described as follows: Transactivation of recombinant human N-terminal GAL4-DBD fused PPARgamma LBD expressed in reporter cells at 30 uM measured after 24 hrs by luciferase reporter gene assay relative to control. The assay is classed as cell-based. In general terms: A reporter such as luciferase makes a cellular process visible.

The target in assay [2] is Free fatty acid receptor 1 (Homo sapiens, UniProt O14842). The assay is described as follows: Transactivation of recombinant human FFAR1 expressed in CHOK1 cells co-expressing Galpha15 assessed as increase in calcium flux measured after 20 secs for 100 secs by FLIPR assay. The class given is functional, cell-based. For orientation: A change in cytosolic calcium serves as a functional read-out for many receptors and channels.
Chain of Free fatty acid receptor 1 (O14842 whole entry): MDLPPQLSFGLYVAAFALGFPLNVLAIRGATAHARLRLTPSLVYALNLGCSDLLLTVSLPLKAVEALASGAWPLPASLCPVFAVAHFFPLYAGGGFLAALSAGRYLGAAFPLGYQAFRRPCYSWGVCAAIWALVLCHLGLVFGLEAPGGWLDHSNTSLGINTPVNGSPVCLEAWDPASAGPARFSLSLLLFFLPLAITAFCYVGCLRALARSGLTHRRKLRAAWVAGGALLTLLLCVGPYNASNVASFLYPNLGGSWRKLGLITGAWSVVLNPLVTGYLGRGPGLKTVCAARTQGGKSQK

In assay [3] the target is T1, Peroxisome proliferator-activated receptor gamma (Homo sapiens). Kind of assay: Transactivation of recombinant human N-terminal GAL4-DBD fused PPARgamma LBD expressed in reporter cells at 30 uM measured after 24 hrs by luciferase reporter gene assay relative to rosiglitazone. The class given is cell-based.
Assay [4] has as its system Mus musculus. Kind of assay: Antihyperglycemic activity in established high fat diet-induced obese mouse assessed as reduction in blood glucose level at 10 mg/kg, iv administered once daily for 14 days measured at 1 hr post dose on day 7 and 14 during compound dosing. The class given is functional, organism-based.
In assay [5] the target is T2, Peroxisome proliferator-activated receptor gamma (Homo sapiens, UniProt P37231).
T2 sequence (P37231 whole entry): T1 sequence (whole entry)
The assay is described as follows: Transactivation of recombinant human N-terminal GAL4-DBD fused PPARgamma LBD expressed in reporter cells measured after 24 hrs by luciferase reporter gene assay. The assay is classed as cell-based.

The test system of assay [6] is Mus musculus. Kind of assay: Antihyperlipidemic activity in established high fat diet-induced obese mouse assessed as reduction in plasma triglyceride level at 10 mg/kg, iv administered once daily for 14 days measured at 1 hr post dose on day 7 and 14 during compound dosing by colorimetric method relative to rosiglitazone. The class given is functional.
Assay [7] has as its system Mus musculus. Kind of assay: Antihyperglycemic activity in established high fat diet-induced obese mouse assessed as reduction in body weight at 10 mg/kg, iv administered once daily for 14 days. The class given is functional, organism-based.
The subject of assay [8] is Mus musculus. Kind of assay: Antihyperglycemic activity in established high fat diet-induced obese mouse assessed as reduction in blood glucose level at 10 mg/kg, iv administered once daily for 14 days measured at 1 hr post dose on day 7 and 14 during compound dosing relative to rosiglitazone. The assay is classed as functional.
Assay [9] relates to Mus musculus. Kind of assay: Antihyperglycemic activity in established high fat diet-induced obese mouse assessed as reduction in blood glucose level at 10 mg/kg, iv administered once daily for 14 days measured at 1 hr post dose on day 7 and 14 during compound dosing in presence of rosiglitazone. The class given is functional, organism-based.
Assay [10] relates to Mus musculus. The assay is described as follows: Antihyperglycemic activity in established high fat diet-induced obese mouse assessed as reduction in blood glucose level at 10 mg/kg, iv administered once daily for 14 days measured at 1 hr post dose on day 7 and 14 during compound dosing in presence of glimepride. The assay is classed as functional, organism-based.

Structures are written as SMILES. Active and inactive are the calls of the source. The calls are words filed in the database; no cut-off is given here. Where only a bound is given, the exact number is not on record here.

For the compound `O=C1NC(=O)C(Cc2ccc(OCCn3ccc4ccccc43)cc2)S1` (stereo not drawn), in [1], the fold change (FC) amounted to 56.1. Moreover, the EC50 (as a rule, the concentration that produces a half-maximal response) was 2.19 µM in [2] (read-out: EC50) and 3.94 µM in assay [5]. In addition, in assay [3], the Activity was 130%. The result in the assay on Mus musculus [4] was Active.

For `O=C1NC(=O)C(Cc2ccc(OCCOC(c3ccccc3)c3ccc(C(F)(F)F)cc3)cc2)S1` (stereo not drawn), the fold change (FC) in assay [1] was greater than 0.01. For the same compound, the EC50 in [2] (read-out: EC50) was determined as 11.3 µM. The outcome in [3] was inactive.

As to `O=C1NC(=O)C(Cc2ccc(OCCn3ccc4ccc(Cl)cc43)cc2)S1` (stereo not drawn), the EC50 in assay [2] (read-out: EC50) stood at 5.06 µM; in [5] it was 4.51 µM. Besides, the results for the “fold change (FC)” value in the assay on Mus musculus [6] and in the assay with Mus musculus [8] were 3.5 and 6, respectively. Besides, the result in the assay on Mus musculus [7] and with Mus musculus [4] was Active. Besides, the Activity in [3] worked out at 83.7%.

In the case of `CCCCC/C=C/C/C=C/C/C=C/CCCCC(=O)O`, the EC50 in assay [2] (read-out: EC50) amounted to 0.24 µM.

In the case of `Cc1ccccc1C(OCCOc1ccc(CC2SC(=O)NC2=O)cc1)c1ccccc1` (stereo not drawn), the EC50 entry in [2] is recorded as “Not Active”. In addition, the Activity in [3] was determined as 4.4%.

For `CCC1=C(C)CN(C(=O)NCCc2ccc(S(=O)(=O)NC(=O)N[C@H]3CC[C@H](C)CC3)cc2)C1=O`, the result with Mus musculus [7] and with Mus musculus [9] was Active.

Consider `O=C1NC(=O)C(Cc2ccc(OCCOC(c3ccccc3)c3ccc(Cl)cc3)cc2)S1` (stereo not drawn), for which the EC50 entry in assay [2] is recorded as “Not Active”. The Activity in assay [3] was found to be 10.7%.

As to `COc1ccc(C(OCCOc2ccc(CC3SC(=O)NC3=O)cc2)c2ccccc2)cc1` (stereo not drawn), the EC50 in assay [2] (read-out: EC50) was found to be 17.8 µM. In addition, the “fold change (FC)” value with Mus musculus [6] was found to be 5.5. Further, the Activity in assay [3] is 12.1%. The outcome in the assay on Mus musculus [4] was Active.

For `O=C1NC(=O)C(Cc2ccc(OCCn3c(CO)nc4ccccc43)cc2)S1` (stereo not drawn), in [2], the EC50 result is “Not Active”. For the same compound, the Activity in [3] was 39.5%.

Consider `O=C1NC(=O)C(Cc2ccc(OCCOC(c3ccccc3)c3ccccc3)cc2)S1` (stereo not drawn), for which the fold change (FC) in [1] amounted to 4. In addition, the EC50 in assay [2] (read-out: EC50) was 21.3 µM. Besides, in [3], the Activity turned out to be 9.3%. For the same compound, the result in the assay with Mus musculus [4] was Active.

As to `O=C1NC(=O)C(Cc2ccc(OCCOc3cccc4ccccc34)cc2)S1` (stereo not drawn), the EC50 result in [2] is listed as “Not Active”. The Activity in [3] amounted to 13.3%.

With `O=C1NC(=O)C(Cc2ccc(OCCn3cnc4ccccc43)cc2)S1` (stereo not drawn), the fold change (FC) in [1] is 29.7. Further, the EC50 in [2] (read-out: EC50) came to 4.31 µM; in assay [5], 2.32 µM. The Activity in assay [3] was 69.8%.

`O=C1NC(=O)C(Cc2ccc(OCCn3c(-c4ccccc4)cc4ccccc43)cc2)S1` (stereo not drawn): the EC50 entry in assay [2] is recorded as “Not Active”. Further, the Activity in assay [3] turned out to be 34.9%.

With `CN(CCOc1ccc(CC2SC(=O)NC2=O)cc1)c1ccccn1` (stereo not drawn), the fold change (FC) in assay [1] was 43.1. Besides, the result in the assay with Mus musculus [10] and with Mus musculus [7] was Active.
